Counter-ions that a name gives are not always drawn. Each block holds one compound with its values, some of them ahead of it.
Legend:
beagle dog hepatocytes = assay: Hepatocyte stability, beagle dog; type: in vitro ADME; details: 2 μM, 0.5 million cells/ml
Protocol: (§1) In this study, human, cynomolgus monkey, beagle dog, wistar hannover rat, and balb/c mouse hepatocyle stability was determined.

CYP2C9 = CYP2C9 (Homo sapiens, UniProt P11712); assay: CYP450 panel inhibition in human liver microsomes, 2C9 (diclofenac); details: for CYP-2C9 (Diclofenac) mean percentage CYP inhibition: human liver microsomes, 10 μM, substrate diclofenac; for inhibition at 30 min, 10 µM: human, microsomes, pH 7.4
Sequence of CYP2C9 (P11712 whole entry): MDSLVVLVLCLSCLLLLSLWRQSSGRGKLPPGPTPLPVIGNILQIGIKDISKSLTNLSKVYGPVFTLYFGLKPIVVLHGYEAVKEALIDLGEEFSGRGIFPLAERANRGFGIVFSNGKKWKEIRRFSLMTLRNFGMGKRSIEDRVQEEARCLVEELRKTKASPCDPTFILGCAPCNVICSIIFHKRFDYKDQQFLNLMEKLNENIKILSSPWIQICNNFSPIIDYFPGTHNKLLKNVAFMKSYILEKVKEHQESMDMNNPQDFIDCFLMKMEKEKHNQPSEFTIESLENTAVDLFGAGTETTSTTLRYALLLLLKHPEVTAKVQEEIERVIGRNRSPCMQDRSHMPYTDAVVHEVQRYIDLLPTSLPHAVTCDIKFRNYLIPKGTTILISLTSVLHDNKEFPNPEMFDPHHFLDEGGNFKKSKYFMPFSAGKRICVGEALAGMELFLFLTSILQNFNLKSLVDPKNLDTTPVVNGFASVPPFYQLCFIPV
Source text: The quenched samples were stored refrigerated.

human hepatocytes = assay: Hepatocyte stability, human; type: in vitro ADME; details: 2 μM, 0.5 million cells/ml
Protocol: as §1

[1] = Plasma stability, mouse plasma (Balb/c; Table 5 head CD-1 Mouse); type: in vitro ADME; details: balb/c plasma, 2 μM, anti-coagulant K2-EDTA; for % Remaining at T120: 120 min; for half-life at 2 μM: mouse, pH 7.4, read-out: T1/2
Protocol: (§2) Individual stock solutions of propantheline and lovastatin were prepared at 10 mM in DMSO and were further diluted to 2 mM with DMSO.
(§3) Frozen matrices (Balb/c mouse, Wistar Han rat, Beagle dog, and human plasma containing K2EDTA as anti-coagulant) were thawed and centrifuged at 3100 rpm for 10 minutes at 4° C. to remove particulates. The lipid layer was then removed, and the supernatant was transferred to a new tube without disturbing the pellet. After the matrices were incubated at 37° C. for at least 10 minutes, the pH of each matrix was adjusted to pH 7.4, using 10% phosphoric acid or 1N sodium hydroxide as necessary. Test and control article stock solutions were spiked (2 μL) into matrix (1.998 mL) and mixed to final assay concentration of […]. Duplicate 30-μL aliquots of spiked plasma were transferred to matrix tubes in 96-well plate immediately after spiking for timepoints of 0, 30, 60, 120, 240, and 360 minutes. These tubes were then incubated at 37° C. with shaking and at each timepoint, the corresponding tubes containing samples were quenched with 180 μL of cold acetonitrile containing the internal standards. The quenched samples were vortex-mixed briefly and stored refrigerated. After the final time point (360 minutes), the plates with all quenched samples were vortex-mixed for 10 minutes and then centrifuged at 3100 rpm for 10 minutes at 4° C. to sediment the precipitated protein. The supernatant (50 μL) was transferred to a clean 96-well plate and diluted with 100 μL of water. The plates were stored refrigerated until analysis.
(§4) Data Analysis: Peak area ratios for IS-normalized test article and control article counts were used to calculate the percent remaining relative to the time zero (T0) value. As appropriate, results were plotted and further analyzed to calculate half-life (T1/2) values.
(§5) Mean peak area ratios were used to calculate the % remaining relative to the T0 value:
(§6) In this study, human, cynomolgus monkey, beagle dog, wistar hannover rat, and balb/c plasma stability was determined. Table 28 describes the results of the human plasma stability at 2 μM concentration and anti-coagulant K2-EDTA from 10 to 120 min. Table 29 describes the results of the cynomolgus monkey plasma stability at 2 μM concentration and anti-coagulant K2-EDTA. Table 30 describes the results of the beagle dog plasma stability at 2 μM concentration and anti-coagulant K2-EDTA. Table 31 describes the results of the wistar hannover rat plasma stability at 2 μM concentration and anti-coagulant K2-EDTA. Table 32 describes the results of the balb/c plasma stability at 2 μM concentration and anti-coagulant K2-EDTA.

[2] = Plasma stability, cynomolgus monkey plasma (K2-EDTA); type: in vitro ADME; details: for T1/2 / % Remaining at T120: 2 μM, anti-coagulant K2-EDTA; for % Remaining at T120: 120 min; for half-life at 2 μM: plasma (K2EDTA), pH 7.4, anti-coagulant K2-EDTA
Protocol: as §2, §3, §4, §5, §6

[3] = Plasma stability, beagle dog plasma (K2EDTA); type: in vitro ADME; details: 2 μM; for T1/2 / % Remaining at T120 / half-life at 2 μM: beagle dog plasma, anti-coagulant K2-EDTA; for % Remaining at T120: 120 min; for half-life at 2 μM: pH 7.4, read-out: T1/2
Protocol: as §2, §3, §4, §5, §6

[4] = system: wistar hannover rat hepatocytes; assay: Hepatocyte stability, wistar hannover rat; type: in vitro ADME; details: 2 μM, 0.5 million cells/ml
Protocol: as §1

balb/c mouse hepatocytes = assay: Hepatocyte stability, balb/c mouse; type: in vitro ADME; details: 2 μM, 0.5 million cells/ml
Protocol: as §1

[5] = Plasma stability, rat plasma (Wistar Han / wistar hannover; Table 5 head SD Rat); type: in vitro ADME; details: wistar hannover rat plasma, 2 μM, anti-coagulant K2-EDTA; for % Remaining at T120: 120 min; for half-life at 2 μM: pH 7.4, read-out: T1/2
Protocol: as §2, §3, §4, §5, §6

SMILES: CNS(=O)(=O)Nc1cccc(Cc2c(CN(C)C)c3ccc(OC(=O)N(C)C)cc3oc2=O)c1F [Compound 9]
% Remaining At T120 (beagle dog hepatocytes): 66.2%
CLint (L/hr/kg) (beagle dog hepatocytes): 2.22 L/h/kg
CLint (mL/min/kg) (beagle dog hepatocytes): 36.9 mL/min/kg
T1/2 (beagle dog hepatocytes): 3.37 h
CYP-2C9 (Diclofenac) mean percentage CYP inhibition (CYP2C9): 13.4%
CLint (L/hr/kg) (human hepatocytes): 1.93 L/h/kg
CLint (mL/min/kg) (human hepatocytes): 32.2 mL/min/kg
% Remaining At T120 (human hepatocytes; 120 min): 48.9%
T1/2 (human hepatocytes; 120 min): 1.93 h
T1/2 [1]: 8.78 h
% Remaining at T120 [1]: 86.0%
T1/2 [2]: >2 h
% Remaining at T120 [2]: 110.4%
T1/2 [3]: >2 h
% Remaining at T120 [3]: 100.5%
% Remaining At T120 [4]: 34.9%
CLint (L/hr/kg) [4]: 2.84 L/h/kg
CLint (mL/min/kg) [4]: 47.3 mL/min/kg
T1/2 [4]: 1.32 h
% Remaining At T120 (balb/c mouse hepatocytes): 73.8%
CLint (L/hr/kg) (balb/c mouse hepatocytes): 3.58 L/h/kg
CLint (mL/min/kg) (balb/c mouse hepatocytes): 59.7 mL/min/kg
T1/2 (balb/c mouse hepatocytes): 4.57 h
T1/2 [5]: 19.67 h
% Remaining at T120 [5]: 93.4%

Beagle Dog (% Reamining @2 hour) ([3]; plasma, 2 hour): 99.8%
SMILES: CNS(=O)(=O)Nc1nccc(Cc2c(C)c3ccc(Oc4ncccn4)cc3oc2=O)c1F [Reference-2, reference compound]

SMILES: CCS(=O)(=O)Nc1cccc(Cc2c(CN3CCNCC3)c3cc(Cl)c(OC(=O)N(C)C)cc3oc2=O)c1Cl [Compound 257, 6-chloro-3-(2-chloro-3-(ethylsulfonamido)benzyl)-2-oxo-4-(piperazin-1-ylmethyl)-2H-chromen-7-yl dimethylcarbamate hydrochloride]
% Remaining At T120 (beagle dog hepatocytes): 47.8%
inhibition at 30 min, 10 µM (CYP2C9): 53.7%
% Remaining At T120 (human hepatocytes; 120 min): 89.1%
% Remaining at T120 [1]: 87.5%
half-life at 2 μM [1]: 9.77 h
% Remaining at T120 [2]: 98.0%
half-life at 2 μM [2]: 20.1 h
% Remaining at T120 [3]: 100.9%
half-life at 2 μM [3]: > 2 h
% Remaining At T120 [4]: 45.4%
% Remaining At T120 (balb/c mouse hepatocytes): 66.7%
half-life at 2 μM [5]: 16.9 h
% Remaining at T120 [5]: 91.5%

SMILES: CNS(=O)(=O)Nc1cccc(Cc2c(CN(C)C)c3ccc(OC(=O)N(C)C)cc3oc2=O)c1Cl [Compound 274, 3-(2-chloro-3-((N-methylsulfamoyl)amino)benzyl)-4-((dimethylamino)methyl)-2-oxo-2H-chromen-7-yl dimethylcarbamate]
% Remaining At T120 (beagle dog hepatocytes): 51.9%
inhibition at 30 min, 10 µM (CYP2C9): 17.1%
% Remaining At T120 (human hepatocytes; 120 min): 47.5%
% Remaining at T120 [1]: 92.7%
half-life at 2 μM [1]: 126 h
% Remaining at T120 [2]: 104.5%
half-life at 2 μM [2]: > 2 h
% Remaining at T120 [3]: 100.5%
half-life at 2 μM [3]: > 2 h
% Remaining At T120 [4]: 34.9%
% Remaining At T120 (balb/c mouse hepatocytes): 64.3%
half-life at 2 μM [5]: 42.3 h
% Remaining at T120 [5]: 97.7%

SMILES: CNS(=O)(=O)Nc1cccc(Cc2c(CN(C)C)c3cc(F)c(OC(=O)N(C)C)cc3oc2=O)c1F [Compound 25]
% Remaining At T120 (beagle dog hepatocytes): 62.7%
CLint (L/hr/kg) (beagle dog hepatocytes): 2.51 L/h/kg
CLint (mL/min/kg) (beagle dog hepatocytes): 41.9 mL/min/kg
T1/2 (beagle dog hepatocytes): 2.97 h
CYP-2C9 (Diclofenac) mean percentage CYP inhibition (CYP2C9): 28.0%
CLint (L/hr/kg) (human hepatocytes): 0.00218 L/h/kg
CLint (mL/min/kg) (human hepatocytes): 0.0363 mL/min/kg
% Remaining At T120 (human hepatocytes; 120 min): 99.9%
T1/2 [1]: >2 h
% Remaining at T120 [1]: 99.9%
T1/2 [2]: >2 h
% Remaining at T120 [2]: 107.3%
T1/2 [3]: 9.88 h
% Remaining at T120 [3]: 90.1%
% Remaining At T120 [4]: 60.0%
CLint (L/hr/kg) [4]: 1.38 L/h/kg
CLint (mL/min/kg) [4]: 23.0 mL/min/kg
T1/2 [4]: 2.72 h
% Remaining At T120 (balb/c mouse hepatocytes): 72.0%
CLint (L/hr/kg) (balb/c mouse hepatocytes): 3.88 L/h/kg
CLint (mL/min/kg) (balb/c mouse hepatocytes): 64.7 mL/min/kg
T1/2 (balb/c mouse hepatocytes): 4.22 h
T1/2 [5]: 55.43 h
% Remaining at T120 [5]: 95.5%

Reference: patent US20250179057A1, “MEK IMMUNE ONCOLOGY INHIBITORS AND THERAPEUTIC USES THEREOF” (Immuneering Corporation, priority 2022, published 2025)
